Source: a melting point compilation (Tetko et al.; mined from patent text by program, amines drawn as free bases though some values may be those of a salt)

| Structure (SMILES) | melting point |
| --- | --- |
| CC1(C)C(N)CN1c1nc2c(cc1F)c(=O)c(C(=O)O)cn2C1CC1 (configuration not stated) | 190 to 195 °C |
| CNc1ccccc1C(=O)N1Cc2ccccc2C(=O)N1 | 199 to 202 °C |
| CC(=O)NC[C@H]1CN(c2ccc(-n3nccc3-c3cccnc3)c(F)c2)C(=O)O1 | 83.7 to 85.9 °C |
| OCC1OC(n2c(Cl)nc3cc(Cl)c(Cl)cc32)C(F)C1O (configuration not stated) | 223 °C |
| N#Cc1cnn(-c2c(Cl)cc(Cl)cc2Cl)c1Cl | 78 to 79 °C |
| c1cn(Cc2ccc3[nH]c(-n4ccnc4)nc3c2)cn1 | 226 °C |
| COC(=O)c1cc(N)c(Cl)c(S(=O)(=O)n2cccc2)c1 | 178 to 181 °C |
| O[C@H]1CCC[C@H]1Oc1cccc2onc(OCC3CCN(CC4(O)CCOCC4)CC3)c12 (relative stereo) | 141 °C |
| Cc1c2c(cc3ccc(O)cc13)-c1ccc(O)cc1CO2 | 224 to 226 °C |
| O=S(CCCCCl)Cc1ccc(Cl)c(Cl)c1 (configuration not stated) | 155 to 158 °C |
| N#Cc1cnn2c1N(C(=O)CI)CC=C2c1cccc(C(F)(F)F)c1 | 158 to 160 °C |
| Nc1nc2ccccc2c2c1nc(C1CCCC1)n2CCOc1ccccc1 | 216 to 218 °C |
| CON(C)C(=O)Nc1ccc(CC#N)cc1Cl | 104 °C |
| CCC(CC)c1ccc(Cl)c2nc3n(c12)CCCCN3c1ccc(Cl)cc1 | 133 to 135 °C |
| O=S(=O)(c1ccccc1)c1cc(Br)nc(Br)c1 | 134 to 135 °C |
| O=C(c1cccc(-c2ccccc2)c1C(=O)C(Cl)(Cl)Cl)C(Cl)(Cl)Cl | 137 to 152 °C |
| O=C(O)c1cn(C2CC2)c2c(F)c(N3CCOC(CN4CCOCC4)C3)c(F)cc2c1=O (configuration not stated) | 171 to 172 °C |
| CCOC(=O)OC1=C(c2cc(C)ccc2C)C(=O)N(OCOC)C12CCN(OC)CC2 | 109 to 111 °C |
| O=C(CN1C(=O)C2(COc3cc4c(cc32)CCO4)c2c(-c3cncnc3)cccc21)Nc1ccccc1F (configuration not stated) | 229 to 230 °C |
| O=C(O)CNC(=O)c1nc(Cl)c2cc(Cl)c(Cl)cc2c1O | 265 °C |
| Cc1ccc(S(=O)(=O)N2CC3CCCNC3C2)cc1 (configuration not stated) | 95 to 97 °C |
| CC(C)(CO)C(O)(Cn1cncn1)c1ccc(F)cc1F (single isomer, unassigned; (+)) | 116 to 118 °C |
| COC(=O)CCc1ccc(OC2Cc3ccccc3C2)cc1 | 73 to 74 °C |
| Cc1cc(NC2=NN(c3ccccc3)CC2)cc(C)c1O | 154 to 158 °C |
| O=c1c(C=NO)c(Cl)nc2n1CCS2 | 148 to 150 °C |
| CCOC(=O)C[C@@H]1C(=O)N(S(=O)(=O)c2ccc(OC)cc2)C=C[C@@H]1c1ccc(OC)cc1 | 107 to 110 °C |

| Structure (SMILES) | melting point |
| --- | --- |
| CCCc1nc2ccnn2c(OC)c1Cc1ccc(-c2ccccc2C#N)cc1 | 110 °C |
| CCCCNC(=O)Nc1ccc(OC)cc1C(=O)NCC1CCN(C(c2ccccc2)c2ccccc2)CC1 | 206 to 208 °C |
| COCOc1ccc(OC)c(-c2ccc(C[C@H](NC(=O)c3c(Cl)cccc3Cl)C(=O)O)cc2)c1OC | 156 to 157 °C |
| O=c1[nH]c2cc([N+](=O)[O-])c(S(=O)(=O)N(CCO)CCO)cc2[nH]c1=O | 310 to 321 °C |
| N#CCCNCCCC(=O)O | 122 to 124 °C |
| c1cn2nc(SCCOC3CCCCO3)ccc2n1 (configuration not stated) | 60 to 62 °C |
| OC(CCCCCOc1ccccc1)c1cccc(OCc2ccc3ccccc3n2)c1 (configuration not stated) | 83 to 84.5 °C |
| O=[N+]([O-])c1ccc2c(c1)C(Cl)=NC(CF)(CF)O2 | 75 to 77 °C |
| O=C(O)c1ccc(I)cc1F | 158 to 159 °C |
| CCOC(=O)C(NC(=O)CCl)N(C(=O)CCl)c1cscn1 (configuration not stated) | 102 to 104 °C |
| CCCCOc1ccc(S(=O)(=O)C2(C(=O)NO)CCN(Cc3ccc(F)cc3)CC2)cc1 | 112 °C |
| CCOC(=O)c1[nH]c(=O)sc1Br | 121 °C |
| Cn1nc2c(N)nc3ccccc3c2c1CC1(F)CCN(S(C)(=O)=O)CC1 | 283 to 285 °C |
| O=P(Oc1ccc(-c2ccc(OP(=O)(c3ccccc3)c3ccccc3)cc2)cc1)(c1ccccc1)c1ccccc1 | 233 to 234 °C |
| CNc1nc(Cl)nc2c1ncn2C1CC(F)C(CO)O1 (configuration not stated) | 181 to 182 °C |
| CC(C)Oc1nc(N)nc2ccc(-c3ccc(F)cc3)nc12 | 191 to 192 °C |
| NS(=O)(=O)c1ccc(-c2nc(-c3cnn4c(C(F)(F)F)cc(-c5ccc(C(F)(F)F)cc5)nc34)no2)cc1 | 292 °C |
| C#Cc1cc(Cl)cc2c1OC(C(F)(F)F)C(C(=O)O)=C2 (configuration not stated) | 186 to 189 °C |
| CN1CCC(c2c[nH]c3ccc(OC4CCCCC4)cc23)CC1 | 192 to 194 °C |
| C=CCOCc1c(CN(C)C[C@@H](O)c2ccccn2)sc2c(=O)c(C(=O)NCc3ccc(Cl)cc3)cn(C)c12 | 125 to 127 °C |
| CCCCc1oc2ccccc2c1C(O)c1cc(I)c(OCCN(CC)CC)c(I)c1 (configuration not stated) | 106 to 107 °C |
| CN1C(C(=O)Nc2ccc(O)c(=O)cc2)=C(O)c2ccccc2S1(=O)=O | 258 to 265 °C |
| O=C(O)C(=O)c1ccc2c(c1)Cc1ccccc1-2 | 135 to 137 °C |
| CC1CCc2c(N3CCC(NC(=O)OC(C)(C)C)C3)c(F)cc3c(=O)n(N)c(=O)n1c23 (configuration not stated) | 98 to 100 °C |
| Cc1ccc(S(=O)(=O)ON=C(C#N)c2ccc(F)cc2)cc1 | 129 to 140 °C |
| CCOC(=O)c1ccc2oc(CN3CCN(c4ccc(Cl)nn4)CC3)nc2c1 | 140 °C |

| Structure (SMILES) | melting point |
| --- | --- |
| CCc1cc(C(=O)c2ccccc2Cl)c(-n2c(C)nnc2CNC(=O)c2[nH]c3ccccc3c2C)s1 | 143 to 147 °C |
| CC(=O)Oc1ccc(C=O)cc1Cl | 33 to 35 °C |
| CC1OC(=S)c2c(O)cccc21 (configuration not stated) | 39 to 41 °C |
| Cc1cc(-c2nc3ccccc3c(=O)n2-c2ccc(C(F)(F)F)cc2)cc(C)c1OCCO | 160 to 161 °C |
| Cc1cccc(NC(=O)c2ccc3nc(NC4CCN(C)CC4)n(Cc4nc(C)ccc4O)c3c2)c1 | 172 °C |
| COc1ccc(C(=O)Nc2ccccc2)cc1NS(=O)(=O)c1ccc([N+](=O)[O-])cc1 | 224 to 227 °C |
| CC(=O)ONC(=N)c1ccc(-c2cccc(-c3nc4ccc(C(=N)NOC(C)=O)cc4[nH]3)n2)cc1 | 150 to 153 °C |
| CC(C)C[C@H](NS(=O)(=O)c1ccc2c(c1)Sc1ccccc1O2)C(=O)O | 120 to 130 °C |
| CCCc1c(OCC#CCCCC(=O)O)ccc(C(C)=O)c1O | 84 to 86 °C |
| CCC1CCc2cc3c(cc2C1)C(=O)c1cccc(OC)c1C3=O (configuration not stated) | 206 to 208 °C |
| Cc1nn(C)c(C#N)c1[N+](=O)[O-] | 96 to 98 °C |
| CCCOc1cnc(CO)cc1O | 159 to 160 °C |
| COc1cc(/C=C2\C(=O)NC(=O)\C2=C\c2ccccc2)ccc1OC1CCCC1 | 203 to 204 °C |
| CCOC(=O)/C=C/C(=C(c1ccc(F)cc1)c1ccc(F)cc1)C(C)C | 66 to 67 °C |
| O=C(c1ccc(OCc2ccccc2)cc1)c1ccc(OCc2ccccc2)cc1 | 188 to 190 °C |
| CSc1nn2c(O)cc(CCl)nc2c1S(=O)(=O)c1ccccc1 | 215 to 217 °C |
| CC1(C(=O)O)Cc2ccccc2NC1=O (single isomer, unassigned; (+)) | 139 to 141 °C |
| C#CCOC(=O)c1c(F)cccc1Oc1nc(OC)cc(OC)n1 | 49 to 50 °C |
| COc1ccc(-c2cc(C(=O)O)nnc2-c2ccc(OC)cc2)cc1 | 157 to 158 °C |
| CCCCc1nc(=O)c2cc(Br)c(F)cc2[nH]1 | 225 °C |
| O=C(Cl)N1CCC(N2CCCCC2)CC1 | 63.8 °C |
| CC(C)(C)c1ccc(C(=O)NC(=N)N)cc1 | 255 to 258 °C |
| CC(C)(C)OC(=O)Nc1ccc(-c2cccc(F)c2)cc1[N+](=O)[O-] | 93 to 96 °C |
| O=C(c1ccc2[nH]ccc2c1)N1CCN(CCc2ccc3nonc3c2)CC1 | 180 to 183 °C |
| CCCCOc1ccc(S(=O)(=O)N2CCC(N(Cc3ccccc3)CC(O)COc3cccc4[nH]c5ccccc5c34)C2)cc1 (configuration not stated) | 73 to 76 °C |
| CC1CNc2ccc(NC3=NCCN3)c(Br)c2N1 (configuration not stated) | 250 to 251 °C |

| Structure (SMILES) | melting point |
| --- | --- |
| CC12CC(C(F)F)C3C4CCC(=O)C=C4CCC3C1CCC2=O (configuration not stated) | 149 to 151 °C |
| CCC(=O)C1=C(O)CC(c2cccc(O)c2)CC1=O (configuration not stated) | 124 to 131 °C |
| Nc1nc2c(c(=O)[nH]1)C(CCc1ccc(C(=O)O)cc1)CN2 (configuration not stated) | > 290 °C |
| Cc1coc(Cc2ccc(N)cc2)n1 | 84 to 85 °C |
| Cc1ocnc1-c1cc(C(C)(C)C)c(O)c(C(C)(C)C)c1 | 105 to 107 °C |
| CCCCN(CCCC)c1ccc(C=CC=CC=CC2=C(C#N)C(=C(C#N)C#N)OC2(c2ccccc2)C(F)(F)F)c(OC)c1 (configuration not stated) | 208 to 210 °C |
| CCOC(=O)c1cnc2c3cc(OC)ccc3ccn2c1=O | 184 to 186 °C |
| Nc1sc2c(c1C(=O)c1ccc3ccccc3c1)CCN(Cc1ccccc1F)C2 | 183 to 185 °C |
| O=C(OCCc1noc(-c2ccc(CN3CCCCCC3)s2)n1)c1ccccc1 | 121 to 123 °C |
| COC(=O)CCCCCCNC(=O)C(CS)Cc1ccccc1 (configuration not stated) | 68 to 70 °C |
| CC(=O)Oc1cc(OC(C)=O)c2ccc(=O)[nH]c2c1 | 230 to 232 °C |
| CNc1ccc(Cl)cc1-c1cc2ccccc2[nH]1 | 123 to 126 °C |
| COC(=O)N[C@@H]1Cc2ccccc2N(OC)C1=O | 117 to 119 °C |
| CC(=O)OCc1ccc2cc(C(=O)O)ccc2c1 | 180 to 190 °C |
| CCCCN(N=Nc1[nH]cnc1C(N)=O)C(C)=N | 191 °C |
| COC(=O)c1nc(N(C)C(C)=O)ccc1Oc1nc(OC)cc(OC)n1 | 119 to 121 °C |
| CC(C)=NOCc1nc2c(N)nc3cccnc3c2n1CCCNC(=O)NC1CCCCC1 | 207 to 208 °C |
| Clc1cc(Cl)nc(N2CCOCC2)n1 | 140 °C |
| COc1cc2cc(COC(C)=O)c(COC(C)=O)c(C=O)c2cc1OC | 154 to 155 °C |
| CSCc1nc(C)cc(O)n1 | 138 °C |
| CC(C)=CCc1cc(C(=O)C=Cc2ccc(O)cc2)c(O)cc1O | 157 to 158 °C |
| O=C1c2ccccc2S(=O)(=O)N1CSc1nnc(SCCN2CCOCC2)s1 | 129 to 131 °C |
| COC(=O)c1[nH]cc(C(=O)NCc2ccc(F)cc2)c(=O)c1OC | 242 to 244 °C |
| Cc1[nH]c(-c2ccccc2)nc1CO | 197 to 199 °C |
